Measurements: patent US8299277B2, “Radiation protection drug containing tocopherol or tocotrienol compound ester derivative as active ingredient” (priority 2006, dated 2012)

Tested on: male C3H mice irradiated with X-rays
Experiment: 30-day survival of mice after X-ray irradiation (radiation protection)
Format: in vivo
Experimental: Seven to thirteen male C3H mice aged 10 weeks (body weight: 25-28 g) per group were irradiated with X-rays (7.5-8.5 Gy) and their survival rate was determined 30 days after the irradiation. To each of drug-treated groups was intraperitoneally or subcutaneously administered 0.5% methylcellulose solution (0.3 ml) containing d-γ-tocopherol-N,N-dimethylglycine ester hydrochloride in an amount of 10-300 mg/Kg, before or after the irradiation. To a control group was intraperitoneally administered 0.5% methylcellulose solution in a volume of 0.3 ml per mouse.
Eight to eleven male C3H mice aged 10 weeks (body weight: 25-28 g) per group were irradiated with X-rays (7.5 Gy) and their survival rate was measured 30 days after the irradiation. To drug-treated groups was intraperitoneally administered 0.5% methylcellulose solution (0.3 ml) containing d-α-tocopherol-N,N-dimethylglycine ester hydrochloride, d-γ- or d-α-tocotrienol-N,N-dimethylglycine ester hydrochloride, d-γ- or dl-α-tocopherol phosphate disodium salt, or d-γ-tocopherol-N-methyl-L-proline ester hydrochloride, respectively, in an amount of 100 mg/Kg, immediately after the irradiation. To a control group was intraperitoneally administered 0.5% methylcellulose solution in a volume of 0.3 ml per mouse.

[1] = 100 mg/kg i.p., 7.5 Gy X-rays, administered immediately after irradiation, C3H mice (Table 2)

Cc1c(OC(=O)CN(C)C)cc2c(c1C)OC(C)(CCCC(C)CCCC(C)CCCC(C)C)CC2.Cl (stereo not drawn) [d-γ-tocopherol-N,N-dimethylglycine ester hydrochloride]
Survival rate after 30 days (%) (10 mg/kg i.p., 7.5 Gy X-rays, administered immediately after irradiation, C3H mice): 10%
Survival rate after 30 days (%) (20 mg/kg i.p., 7.5 Gy X-rays, administered immediately after irradiation, C3H mice): 60%
Survival rate after 30 days (%) (50 mg/kg i.p., 7.5 Gy X-rays, administered immediately after irradiation, C3H mice): 85%
Survival rate after 30 days (%) (100 mg/kg S.C. administration, 7.5 Gy X-rays, administered immediately after irradiation, C3H mice): 85%
Survival rate after 30 days (%) (100 mg/kg i.p., 7.5 Gy X-rays, administered 30 min. before irradiation, C3H mice): 60%
Survival rate after 30 days (%) (100 mg/kg i.p., 7.5 Gy X-rays, administered 1 hr. after irradiation, C3H mice): 88%
Survival rate after 30 days (%) (100 mg/kg i.p., 7.5 Gy X-rays, administered 10 hrs. after irradiation, C3H mice): 75%
Survival rate after 30 days (%) (100 mg/kg i.p., 7.5 Gy X-rays, administered 24 hrs. after irradiation, C3H mice): 40%
Survival rate after 30 days (%) (100 mg/kg i.p., 7.5 Gy X-rays, administered immediately after irradiation, C3H mice (Table 1)): 98%
Survival rate after 30 days (%) (100 mg/kg i.p., 7.5 Gy X-rays, administered immediately before irradiation, C3H mice): 80%
Survival rate after 30 days (%) (100 mg/kg i.p., 8 Gy X-rays, administered immediately after irradiation, C3H mice): 78%
Survival rate after 30 days (%) (100 mg/kg i.p., 8.5 Gy X-rays, administered immediately after irradiation, C3H mice): 37%
Survival rate after 30 days (%) (300 mg/kg i.p., 7.5 Gy X-rays, administered immediately after irradiation, C3H mice): 55%

Cc1c(OP(=O)([O-])[O-])cc2c(c1C)OC(C)(CCCC(C)CCCC(C)CCCC(C)C)CC2.[Na+].[Na+] (stereo not drawn) [d-γ-Tocopherol phosphate disodium salt]
Survival rate after 30 days (%) [1]: 70%

CC(C)=CCCC(C)=CCCC(C)=CCCC1(C)CCc2c(C)c(OC(=O)CN(C)C)c(C)c(C)c2O1.Cl (stereo not drawn) [d-α-Tocotrienol-N,N-dimethylglycine ester hydrochloride]
Survival rate after 30 days (%) [1]: 91%

CC(C)=CCCC(C)=CCCC(C)=CCCC1(C)CCc2cc(OC(=O)CN(C)C)c(C)c(C)c2O1.Cl (stereo not drawn) [d-γ-Tocotrienol-N,N-dimethylglycine ester hydrochloride]
Survival rate after 30 days (%) [1]: 85%

Cc1c(C)c2c(c(C)c1OP(=O)([O-])[O-])CCC(C)(CCCC(C)CCCC(C)CCCC(C)C)O2.[Na+].[Na+] (racemic) [dl-α-Tocopherol phosphate disodium salt]
Survival rate after 30 days (%) [1]: 40%

Cc1c(C)c2c(c(C)c1OC(=O)CN(C)C)CCC(C)(CCCC(C)CCCC(C)CCCC(C)C)O2.Cl (stereo not drawn) [d-α-tocopherol-N,N-dimethylglycine ester hydrochloride]
Survival rate after 30 days (%) [1]: 95%

Cc1c(OC(=O)[C@@H]2CCCN2C)cc2c(c1C)OC(C)(CCCC(C)CCCC(C)CCCC(C)C)CC2.Cl (stereo partly drawn) [d-γ-tocopherol-L-N-methylproline ester hydrochloride]
Survival rate after 30 days (%) [1]: 90%
